# From patent publication US8569573B2 (priority 2007, dated 2013)
# How the values were obtained:
# CYP1A1 and 1A2 = experiment: Ethoxyresorufin-O-deethylase (EROD) activity on cultured hepatocytes from humanized FRG mouse liver; type: cell-based, human; settings: humanized mouse liver cells, FIG. 6a
# [1] = test system: human drug metabolism genes; experiment: Induction of mRNAs involved in drug metabolism in cultured hepatocytes from chimeric mice (real-time PCR)
# From the text: (§1) The basal expression and induction of human liver specific genes in chimeric mice was examined. […] Primers, obtained from Applied Biosystems, were specific for human CYP1A1 (Hs00153120_m1), CYP1A2 (Hs00167927_m1), CYP3A4 (Hs00430021_m1), CYP3A7 (Hs00426361_a1), CYP2B6 (Hs00167937_g1), CYP2D6 (Hs00164385_a1), Multidrug resistance associated protein MRP2 (Hs00166123_m1), Bile Salt export Pump BSEP, (Hs00184829_m1), CAR (Hs00231959_m1) Albumin (Hs00609411_m1), HNF4α (Hs00230853_m1), Cyclophillin (Hs99999904_m1) and mouse actin (Ma00607939_s1).
# (§2) Cultures of isolated hepatocytes were established and exposed to prototypical inducers of the cytochrome P450 genes. […] In addition to the mRNA expression levels of human drug metabolism genes, the enzymatic activity of the human CYP1A and 3A family members were measured. Ethoxyresorufin-O-deethylase activity (EROD) is known to be mediated by CYP1A1 and 1A2 in human liver.
# CYP3A4 = experiment: Conversion of testosterone to 6-beta-hydroxyltestosterone in cultured hepatocytes from humanized FRG mouse liver; settings: cultured hepatocytes from repopulated FRG livers, FIG. 6b
# From the text: as §1, §2
# FRG mice = experiment: Maintenance of FRG mice with NTBC in drinking water and NTBC withdrawal; type: in vivo, mouse
# From the text: Several strains of immune-deficient Fah knockout mice were generated. Crossing the Fah mutation onto nude, nod/scid or Rag1^−/− backgrounds was unsuccessful. To generate an immunodeficient Fah^−/− mouse strain completely lacking T cells, B cells and NK cells, but without a DNA repair defect, Fah^−/−/Rag2^−/−/Il2rg^−/− (FRG) mice were generated. Male Fah^−/−129S4 mice (Grompe et al. Genes Dev. 7:2298-2307, 1993) were crossed with female Rag2^−/−/Il2rg^−/− mice (Taconic). All animals were maintained with drinking water containing 2-(2-nitro-4-trifluoro-methyl-benzoyl)-1,3 cyclohexanedione (NTBC) at a concentration of 1.6 mg/L (Grompe et al. Nat. Genet. 10:453-460, 1995). To confirm the genotypes of each animal, PCR-based genotyping was carried out on 200 ng genomic DNA isolated from toe tissue (Grompe et al. Genes Dev. 7:2298-2307, 1993; Traggiai et al. Science 304:104-107, 2004).
smiles,measurement,setting,value
"O=c1cc(-c2ccccc2)oc2ccc3ccccc3c12 [BNF, beta-naphthoflavone]",EROD activity after prior exposure to inducer,CYP1A1 and 1A2,specifically and robustly induced
same,pattern of genes induced,"[1]; cultured hepatocytes from chimeric mice, FIG. 7",as expected from normal human cells
"CCC1(c2ccccc2)C(=O)NC(=O)NC1=O [PB, phenobarbital]",conversion of testosterone to 6-beta-hydroxyltestosterone after prior exposure to inducer,CYP3A4,specifically induced
same,induction of CYP3A4 mRNA,"[1]; relative to non-induced cultures, FIG. 7b",even more striking than at the enzyme level
"O=C1CCCC(=O)C1C(=O)c1ccc(C(F)(F)F)cc1[N+](=O)[O-] [NTBC, 2-(2-nitro-4-trifluoro-methyl-benzoyl)-1,3 cyclohexanedione]",time to death after NTBC withdrawal,"FRG mice; FRG mice, gradual hepatocellular injury after withdrawal",4-8 weeks
same,growth and fertility of FRG mice,"FRG mice; NTBC continuously in drinking water, 1.6 mg/L",grew well and were fully fertile
